Data as given in PubChem BioAssay AID1241 (SRMLSC, 2008).

Assay: NF-kB promoter reporter activators, neuronal cells, dose response, cell-based, SH-SY5Y, luciferase (AID 1241)
Details: fold induction

EC50 [nM]	SMILES
2450	Cc1ccc(C(=O)COC(=O)c2cccs2)cc1
8130	Cc1cccnc1Nc1nc(-c2ccc(O)cc2)cs1
4220	COc1cccc(NC(=O)C(=S)NC2CCCCC2)c1
8250	Cc1ccc(NC(=O)c2ccn(C)n2)c(Br)c1
2040	COC(=O)c1cccc(NC(=O)c2onc3c2CCCC3)c1
4750	Cc1ccc(-n2nnc(-c3cccnc3Cl)n2)cc1
6450	CCOC(=O)Cc1ccc2sc(-c3ccccc3)nc2c1
3700	CSc1ccccc1-c1nnc(-c2ccccc2)o1
18900	Cc1ccc(NC(=O)c2ccccn2)c(Br)c1
8430	Fc1ccccc1Cn1nnc(-c2ccc3c(c2)OCO3)n1
6160	Cc1ccc(C(=O)Nc2ncc(Cc3ccc(F)cc3)s2)o1
2410	O=C(Nc1ccc2c(c1)CCC2)c1cc2ccccc2o1
861	Clc1ccc(-c2cn3c(n2)-c2ccccc2C3)cc1Cl
16200	O=C(CCc1ccccc1)Nc1ccc2ccccc2n1
29800	Cc1cc(C(=O)Nc2cccc(C(=O)O)c2)oc1C
24100	O=C(NCCCn1ccnc1)c1cc(-c2cccs2)on1
2030	Cc1nn2cc(-c3ccccc3)nc2s1
15800	CC(C)(C)c1ccc(C(=O)Nc2cccc([N+](=O)[O-])c2)cc1
10400	O=C(/C=C/c1ccccc1[N+](=O)[O-])Nc1ccccc1
9880	CCc1ccc(-c2cn3c(n2)SCC3)cc1
899	COc1ccc2nc(NC(=O)Nc3ccccc3)sc2c1
5210	c1ccc2sc(NN=C3CCCC3)nc2c1
1890	Cc1ccc(Nc2nc(-c3ccc(O)cc3O)cs2)nc1

EC50 [nM]	SMILES
6430	Cc1ccc(NC(=O)c2ccccc2)s1
2730	CC(C)(C)C(=O)Nc1nc(-c2ccccc2)ns1
3610	CN1CCN(Cn2cc(/C=C/C(=O)c3ccccc3)c3ccccc32)CC1
2450	Cc1cnc(C(=O)Nc2ccc3c(c2)CCC3)cn1
4100	Oc1cccc(-c2nc3ccccc3s2)c1
803	Cc1ccsc1/C=N/Nc1nc2ccccc2s1
5510	COc1cccc(C(=O)/C=C/Nc2cc(C)ccc2O)c1
17300	CCOc1ccc2nc(NC(=S)N(C)C)sc2c1
1100	CCOC(=O)CSc1nc2cc(C)ccc2cc1C#N
1240	Fc1ccccc1OCCSc1nnnn1-c1ccccc1
1280	CN1/C(=C\C(=O)c2cccs2)Sc2ccccc21
15600	c1ccc(-c2noc(-c3cccc4ccccc34)n2)cc1
1630	CC(=O)Nc1cccc(-c2csc(Nc3cccc(C)n3)n2)c1
13700	O=C(Nc1nc(-c2ccc3c(c2)OCCO3)cs1)C1CCCC1
3300	CCOc1ccc2nc(C(=O)N3CCCC(C)C3)sc2c1 (stereo not drawn)
8510	CC(C)CC(=O)Nc1ccc(-c2cn3ccsc3n2)cc1
4540	CCC(=O)Nc1nc(-c2ccc3c(c2)OCCO3)cs1
2080	Brc1ccccc1-c1nc(-c2ccccc2)no1
1120	O=C(Nc1ccc2c(c1)OCCO2)c1cc2ccccc2o1
1930	CCOC(=O)c1ccc2nc(NC(=O)c3cccs3)sc2c1
343	Clc1ccc(-c2nc3n(n2)Cc2ccccc2-3)cc1
6940	Clc1ccc(CSc2nc3ccncc3[nH]2)cc1
1080	CCNC(=S)NNC(=O)c1cc(-c2ccc(OCC)cc2)nc2ccccc12

EC50 [nM]	SMILES
667	c1ccc(Nc2nc(-c3cccs3)cs2)nc1
2320	C(=N\Nc1nc2ccccc2s1)/c1ccco1
23900	CCN(CC)c1ccc(NC(=O)c2ccc(Br)o2)cc1
2800	C/C(=N\Nc1nc2ccccc2[nH]1)c1cccs1
2440	COc1ccc(-c2cc(-c3ccccc3O)[nH]n2)cc1OC
1680	O=C(Nc1ccc(N2CCCC2)c(Cl)c1)c1ccco1
18200	Cc1ccc(NC(=O)COc2ccccc2[N+](=O)[O-])nc1
943	Cc1nc(NC(=O)c2csc3ccccc23)sc1C
887	C(=N\Nc1nc2ccccc2s1)/c1cccs1
4830	Cc1ccc2sc(-c3ccc(NC(=O)/C=C\C(=O)O)cc3)nc2c1
956	N/C(=N\OC(=O)c1ccccc1Cl)c1ccccc1
1080	COc1ccc2c(=O)c(-c3nc(C)cs3)coc2c1
4370	Cc1nn(-c2ccccc2Cl)c(Cl)c1/C=N/Nc1cccc(C(=O)O)c1
1720	O=C(c1cnn(-c2ccc(Cl)cc2)c1)c1ccccc1O
24800	COc1ccc2nc(NC(=S)N(C)C)sc2c1
1350	Oc1cccc(/C=N/Nc2cccc3cccnc23)c1
2990	CCCC(=O)Nc1ccc(C(=O)N/N=C/c2ccc[nH]2)cc1
5980	Cc1ccc(/C=C2\Sc3ccccc3C2=O)s1
5440	O=C(/C=C/c1c[nH]c2ccccc12)c1ccccc1
1420	CCn1cnc2cc(NCc3nc4ccccc4n3C)ccc21
1470	O=C(/C=C/Nc1ccccc1C(F)(F)F)c1ccco1
1250	NC(=O)c1ccccc1N/C=C/C(=O)c1ccc(Cl)cc1Cl
4370	C=CCSc1nnc(-c2ccc(Cl)cc2Cl)o1

EC50 [nM]	SMILES
1050	COc1cccc(/C=C/C(=O)Nc2ccc3c(c2)OCCO3)c1OC
1230	O=C(Nc1ccc2c(c1)OCO2)c1ccc2c(c1)OCO2
3440	Cc1ccc(-c2nnc(-c3ccccc3)o2)cc1
11500	Cc1ccc(-c2cnc3c(Cl)c(C)nn3c2)cc1
3260	CC(=O)c1cnc2cc(-c3ccc(C)cc3)nn2c1C
15400	CC1CC1C(=O)OCC(=O)Nc1ccc(N=Nc2ccccc2)cc1 (stereo not drawn)
125	Fc1ccc(-c2nc3n(n2)Cc2ccccc2-3)cc1
4350	Cc1cc(NC(=O)Nc2ccccc2F)ccc1Br
327	COc1ccc(-c2cn3cc(C)ccc3n2)cc1Br
4030	C(=N\Nc1ncnc2ccccc12)/c1ccccc1
15600	CN=c1scc(C)n1/N=C/c1ccc(O)cc1
5970	C(=N\Nc1nc(-c2ccccc2)cs1)/c1cccs1
3870	Cc1ccccc1C(=O)O/N=C1\CCS(=O)(=O)c2sccc21
3230	Cc1ccc(NC(=O)c2ccccc2O)cc1
1080	O=C(Nc1nc2c(s1)CCCC2)c1cccs1
3700	Cc1occc1C(=O)Nc1ccc2ccccc2c1
632	O=C(Nc1ccc2ccccc2c1)c1onc2c1CCCC2
242	CSc1ccc(/C=C/C(=O)Nc2ccccc2)cc1
6090	Cc1ccc(-c2nc3ccccc3[nH]2)s1
137	Cc1ccn2cc(-c3cc4ccccc4oc3=O)nc2c1
2170	N#C/C(=N\Nc1ccc(F)cc1)C(=N)N1CCCCCC1
272	COc1ccc(/C=N/N=C(\N)c2nonc2N)cc1
2290	Cc1ccc(-c2nc(Nc3ccccc3)n[nH]2)cc1

EC50 [nM]	SMILES
1630	COc1ccc(N/C=C\C(=O)c2ccc3c(c2)OCO3)cc1
2180	COc1cccc(-c2noc(-c3cccs3)n2)c1
6940	N#C/C(=N\Nc1ccccc1[N+](=O)[O-])C(=N)N1CCCCC1
1530	Cc1ccc(/C=N/Nc2nnc(Cl)c3ccccc23)cc1
9490	Cc1ccc(OCC(=O)Nc2ccccc2[N+](=O)[O-])c(Br)c1
702	COC(=O)Cc1ccc2sc(-c3ccccc3)nc2c1
21200	CCC(=O)Oc1ccc(-c2cnc3ccccc3n2)cc1
716	COc1ccc(-c2cn3ccc4ccccc4c3n2)cc1
1080	O=C(Nc1ncc(Cc2ccccc2)s1)c1cccs1
10500	Oc1sc(C=Nc2ccccc2)c2ccccc12
5140	NC(=O)c1ccccc1N/C=C/C(=O)c1ccc(Cl)cc1
3860	CN(c1ccc(O)cc1)c1nc(-c2cccs2)cs1
1060	N/C(=N\OC(=O)COc1ccc(Br)cc1Cl)c1ccccn1
5510	O=C(c1cc(-c2cccc(O)c2)on1)N1CCCCC1
3440	Oc1ccc(-c2csc(Nc3ncccn3)n2)cc1
3190	CC(C)(C)c1ccc2c(c1)C(=O)c1ccccc1C2=O
13600	COC(=O)c1sc(NC(=O)c2cc3c(s2)CCCC3)nc1C
935	COc1ccc(-c2csc(N3C(=O)CNC3=S)n2)cc1
952	CCOC(=O)c1sc(NC(=O)c2sccc2C)cc1C
5740	CCOC(=O)c1sc(NC(=O)c2ccccc2)cc1C
3300	COC(=O)c1ccc(-c2nc3ccc(C)cc3o2)cc1
356	O=C(/C=C/c1cccs1)N1CCc2ccccc21
2230	Cc1ccc2nc(NC(=S)NC(=O)c3cccs3)sc2c1

EC50 [nM]	SMILES
3300	Cc1nc2ccc(-c3nc4ccccc4o3)cc2[nH]1
2220	Cc1cc(N/C=C/C(=O)c2cccs2)ccc1F
1290	COc1cc(SC)ccc1C(=O)Nc1ccc2c(c1)OCO2
5700	O=C(NC(=S)Nc1ccc2c(c1)OCO2)c1ccccc1
1700	Cc1sc(NC(=O)c2ccc(Cl)s2)c(C(N)=O)c1C
3080	Cc1ccsc1C(=O)Nc1ccc2c(c1)OCCO2
1670	O=C(Nc1ccc(Cl)c(Cl)c1)Nc1ccccc1C(=O)O
270	Cc1ccc(N/C=C/C(=O)c2cccs2)cc1C
1960	Cc1ccc(S/C=C\C(=O)c2ccccc2)cc1
2120	COc1ccc(-c2nnc(-c3ccc(N)cc3)o2)cc1
12200	O=[N+]([O-])c1ccc(C2Oc3ccccc3C3CC(c4ccccc4)=NN32)s1 (stereo not drawn)
2290	Cc1ccc(-c2noc(-c3cccs3)n2)cc1
2750	O=C(Nc1ccc(Cl)cc1)c1ccc2c(c1)OCO2
24000	Cc1cnc(NC(=O)Nc2ccc(Cl)cc2)s1
2680	CS(=O)(=O)N1N=C(c2ccc(Br)cc2)CC1c1ccc2c(c1)OCO2 (stereo not drawn)
1320	Cc1ccc(-c2nc(-c3cccnc3)no2)cc1
836	CC(=O)Oc1ccc(Cl)cc1/C=C/c1ccc2ccccc2n1
8040	O=C(Nc1ccc(Cl)cc1Cl)C1=Cc2ccccc2OC1
295	COC(=O)CSc1nc2cc(OC)ccc2cc1C#N
2220	N/C(=N\OC(=O)c1cc(Br)ccc1Cl)c1ccccn1
1450	Cc1nc(Nc2ccccc2)sc1-c1ccccc1
20500	CCCCOC(=O)Nc1ccc(N2CCCCC2)cc1
762	CC(C)CC(=O)N/C(N)=N/c1nc2ccccc2s1
